Earlier results, collected in patent US20170035783A1, “COMPOSITION FOR THE PREVENTION AND THERAPY OF TUMOR DISEASES” (SANOXSYS GMBH, priority 2014, published 2017).

Tested on: breast cancer risk
Conditions: subcutaneous pellet, 2008-2010

C[C@]12CC[C@H]3[C@@H](CCC4=CC(=O)CC[C@@]43C)[C@@H]1CC[C@@H]2O [testosterone alone, testosterone]
breast cancer risk in pre- and postmenopausal women: reduce the breast cancer risk
